Reference: patent publication US10905687B2, “Substituted piperazines as ROR-gamma modulators” (ESCALIER BIOSCIENCES B.V., priority 2016, dated 2021)
Where a name gives a salt, the structure may show the parent alone.

Experiments:
RORγt = RORγt (Homo sapiens (Human), UniProt P51449); test: Gal4 ligand binding assay (RORγt Gal fusion assay); assay type: cell-based; settings: RORγt inverse agonists in RORγt Gal fusion assay
Experimental: Human RORγ ligand binding assay was performed in 96-well format. The N-terminal DNA binding domains (DBD) of the native RORγ and RORγt receptors have been substituted with that of the yeast GAL4-DBD and RORγ is expressed constitutively in the cell line. Both agonist and inverse agonist activity can be detected. 10 mM compound stocks were diluted serially 1:3 with DMSO and further diluted with provided media to generate 10 titration points from 60 μM to 3 nM. These treatment conditions were added to the plates as 2× media in 100 μL volume. Each plate includes a positive control with 10 titration points as well as 6 negative control wells with vehicle only. Reporter cells were rapidly thawed and added to the plates in 100 μL volume. The plates were incubated for 24 hrs in a 37° C. humidified 5% CO2 incubator. Media was removed before the addition of room temperature Detection Substrate. After 5 minute incubation, the luminescence was quantified on a luminescence plate reader.

IMQ-induced psoriasis = settings: topical pre-treatment daily for 5 days, 4 hours before IMQ; Compound A at 0.3, 1, 3%
Experimental: Compounds of Formula (I), (Ia), or (Ib) were tested in the imiquimod (IMQ) induced psoriasis model in mice to determine their in vivo efficacy as topical agents. Female Balb/c mice of age 8-10 weeks were allowed to acclimatize for at least seven days prior to experiment initiation. During this period, the mice were observed daily for clinical signs. Animals were randomly assigned to studies group on Day zero (DO) before anaesthetization and back hair was completely removed by using a depilatory cream. One group of animals served as a naïve control (untreated). […] The severity of psoriasis was monitored and graded daily using a modified human scoring system, the Psoriasis Area and Severity Index (PASI), which consists of measures for ear and skin erythema, scaling and thickness. At the end of the study period, 24 hours after the final dosing, all animals were humanely sacrificed, and blind histopathological scoring was performed by pathologist on H&E stained tissue sections of the ear and back.

RORγt, sequence (P51449 269-508): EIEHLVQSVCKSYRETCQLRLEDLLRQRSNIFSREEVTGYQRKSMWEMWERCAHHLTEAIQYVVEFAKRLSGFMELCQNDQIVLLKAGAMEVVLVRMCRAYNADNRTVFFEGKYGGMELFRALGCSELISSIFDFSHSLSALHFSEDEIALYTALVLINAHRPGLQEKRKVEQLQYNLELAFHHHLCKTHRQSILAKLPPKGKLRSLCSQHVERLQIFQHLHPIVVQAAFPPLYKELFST

Row | Compound | IC50 (RORγt) | other results
1 | O=C(O)C1CN(Cc2ccncc2)CCN1Cc1ccc(-c2ccc(C(O)(C(F)(F)F)C(F)(F)F)cc2)cc1 (centres unmarked) [Compound 12, 1-((4′-(1,1,1,3,3,3-hexafluoro-2-hydroxypropan-2-yl)-[1,1′-biphenyl]-4-yl)methyl)-4-(pyridin-4-ylmethyl)piperazine-2-carboxylic acid] | 1 to 10 µM | 
2 | O=C(O)CC1CN(Cc2ccncc2)CCN1Cc1ccc(-c2ccc(C(O)(C(F)(F)F)C(F)(F)F)cc2)cc1 (centres unmarked) [Compound 13, 2-(1-((4′-(1,1,1,3,3,3-hexafluoro-2-hydroxypropan-2-yl)-[1,1′-biphenyl]-4-yl)methyl)-4-(pyridin-4-ylmethyl)piperazin-2-yl)acetic acid] | 1 to 10 µM | 
3 | C[C@H]1C[C@H]2[C@@H]3CCC4=CC(=O)C=C[C@]4(C)[C@@]3(F)[C@@H](O)C[C@]2(C)[C@@]1(O)C(=O)CCl [clobetasol] |  | ear and back skin thickness (IMQ-induced psoriasis): significantly decreased; histopathology scoring (IMQ-induced psoriasis): significantly decreased; psoriasis score (IMQ-induced psoriasis): significantly decreased

Second part, led by results:

Row | IC50 (RORγt) | Compound | other results
4 | 1 to 10 µM | CC(C)NC(=O)C1CN(Cc2ccc(-c3ccc(C(O)(C(F)(F)F)C(F)(F)F)cc3)cc2)CCN1Cc1ccncc1 (centres unmarked) [Compound 28, 4-((4′-(1,1,1,3,3,3-hexafluoro-2-hydroxypropan-2-yl)-[1,1′-biphenyl]-4-yl)methyl)-N-isopropyl-1-(pyridin-4-ylmethyl)piperazine-2-car oxamide] | 
5 | 1 to 10 µM | NCCOC(=O)CC1CN(Cc2ccc(-c3ccc(C(O)(C(F)(F)F)C(F)(F)F)cc3)cc2)CCN1Cc1ccncc1 (centres unmarked) [Compound 33, 2-aminoethyl 2-(4-((4′-(1,1,1,3,3,3-hexafluoro-2-hydroxypropan-2-yl)-[1,1′-biphenyl]-4-yl)methyl)-1-(pyridin-4-ylmethyl)piperazin-2-yl)acetate hydrochloride] | 
6 | 1 to 10 µM | Cc1cc(CN2CCN(Cc3ccncc3)[C@@H](CC(=O)O)C2)ccc1-c1ccc(C(O)(C(F)(F)F)C(F)(F)F)cc1 [Compound 50, (S)-2-(4-((4′-(1,1,1,3,3,3-hexafluoro-2-hydroxypropan-2-yl)-2-methyl-[1,1′-biphenyl]-4-yl)methyl)-1-(pyridin-4-ylmethyl)piperazin-2-yl)acetic acid] | 
